The results in this text go back to PMC6980330 (Steroids, 2019).

Broadly, the IC50 is the concentration that inhibits the measured activity by half. Lower therefore signals greater potency in that assay.

This experiment deals with T1, vitamin D receptor (VDR) (Homo sapiens, UniProt P11473).
T1 sequence (P11473 118-427 limits assumed): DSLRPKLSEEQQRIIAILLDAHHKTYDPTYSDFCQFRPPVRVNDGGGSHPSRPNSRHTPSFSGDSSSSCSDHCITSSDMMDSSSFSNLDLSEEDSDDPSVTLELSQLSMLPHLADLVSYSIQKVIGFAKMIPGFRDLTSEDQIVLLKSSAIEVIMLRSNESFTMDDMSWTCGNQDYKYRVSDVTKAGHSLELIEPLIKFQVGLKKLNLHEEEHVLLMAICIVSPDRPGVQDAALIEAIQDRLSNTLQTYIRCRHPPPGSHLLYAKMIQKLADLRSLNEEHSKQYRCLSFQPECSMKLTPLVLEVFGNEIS
The class given is binding.

As for `C=C1CC[C@H](O)C/C1=C/C=C1\CCC[C@]2(C)[C@@H]([C@H](C)CC(=O)O)CC[C@@H]12` [compound 13, calcioic acid], half-maximal inhibition (IC50) required 71.2 µM.
